{"source": "patent US20220396825A1", "about": "“METHOD FOR PREPARING […]” (KAO CORPORATION, priority 2019, published 2022)", "assay_type_in_all_cases": "cell-based, Salmonella typhimurium", "key": {"TA100 strain": {"test_system": "TA100 strain", "assay": "Ames test (pre-incubation method), number of revertant colonies", "settings": "S9 mix; for Number of revertants: individual plates 1-3; for Number of revertants, Mean: mean of three plates", "experimental": "Exposure of the TA100 cell line to DMSO was performed in accordance with the Ames pre-incubation method (Mol. Mech. Mutagen., 455:29-60, 2000, Sci. Rep. 8 (1):9583). TA100 strain was seeded in 2 mL of Nutrient Broth No. 2 (produced by Oxoid Limited), and subjected to shaking culture at 37° C. and 180 rpm for 4 hours to afford pre-culture solution with an OD660 value of 1.0 or higher. Into test tubes, 100 μL of DMSO, 500 μL of S9 mix (produced by IEDA TRADING Corporation), and 100 μL of the pre-culture solution were added, and the resultants were subjected to shaking culture at 100 rpm in a water bath at 37° C. for 20 minutes (DMSO-exposed cells). After shaking culture for 20 minutes, the test tubes each containing a culture solution were taken out of the water bath, and 50 μL of each culture solution was added to 2 mL of Nutrient Broth solution (containing 18.5% S9 mix) aliquoted in advance, and the resultant was further cultured in an incubator at 37° C. and 180 rpm for 14 hours. After the culture, the bacterial suspensions were collected and centrifuged at 7,500 rpm for 5 minutes, and the supernatants were removed to collect the cells. From the DMSO-exposed cells, total DNA was collected by using a DNeasy Blood & Tissue Kit (produced by QIAGEN) in accordance with the recommended protocol. The double-stranded DNA concentration of each DNA sample obtained was measured by using a Qubit3.0 Fluorometer (produced by Thermo Fisher Scientific) with a Qubit™ dsDNA BR Assay Kit attached thereto.\nDMSO-exposed cells were prepared with the same procedure as in 1) of Comparative Example 1, and TA100 strain was exposed to 3-methylcholanthrene (3-MC) with the same procedure. In DMSO, 3-MC (produced by Sigma-Aldrich Co. LLC., CASRN.56-49-5) was dissolved. Into test tubes, 100 μL of the 3-MC solution, 500 μL of S9 mix (produced by IEDA TRADING Corporation), and 100 μL of the pre-culture solution for TA100 strain were added ([…]), and the resultants were subjected to shaking culture at 100 rpm in a water bath at 37° C. for 20 minutes (3-MC-exposed cells). Cells were collected from the bacterial suspensions, and DNA was extracted with the same procedure as in 1) of Comparative Example 1.\nFor the Ames test, a bacterial suspension exposed to 3-MC under the above-described conditions was prepared. Thereto, 2 mL of top agar (containing 1% NaCl, 1% agar, 0.05 mM histidine, and 0.05 mM biotin) warmed to 45° C. was added and the resultant was stirred by using a Vortex, and poured onto a minimal glucose agar medium (Tesmedia® AN; produced by Oriental Yeast Co., Ltd.) to form a layer. The resulting plate was subjected to culturing at 37° C. for 48 hours, and the number of colonies observed was counted."}, "genome of TA100 strain [1]": {"test_system": "genome of TA100 strain", "assay": "Mutation frequency in 3-MC-exposed library by sequencing utilizing information on complementary strands", "excerpt": "The flows of a sequencing method and mutation analysis used in Comparative Examples and Examples described later will be described in the following. Fundamentally, the highly accurate sequencing method utilizing information on complementary strands, which is described in Patent Literature 4, was used. Specifically, a library was subjected to sequencing, and read pairs expected to be derived from the same DNA fragment were collected. Then, a consensus read sequence (a consensus read sequence considering complementary strands) was generated among read sequences expected to be derived from two complementary strands (hereinafter, referred to as strand A and strand B) of the DNA fragment. Acquired consensus read sequences considering complementary strands were used for mutation analysis.\nDMSO-exposed cells were prepared with the same procedure as in 1) of Comparative Example 1, and TA100 strain was exposed to 3-methylcholanthrene (3-MC) with the same procedure. In DMSO, 3-MC (produced by Sigma-Aldrich Co. LLC., CASRN.56-49-5) was dissolved. Into test tubes, 100 μL of the 3-MC solution, 500 μL of S9 mix (produced by IEDA TRADING Corporation), and 100 μL of the pre-culture solution for TA100 strain were added (amount of 3-MC: 1000 μg/tube), and the resultants were subjected to shaking culture at 100 rpm in a water bath at 37° C. for 20 minutes (3-MC-exposed cells). Cells were collected from the bacterial suspensions, and DNA was extracted with the same procedure as in 1) of Comparative Example 1.\nFrom DNA derived from the DMSO-exposed cells or the 3-MC-exposed cells, a plurality of samples each of which was to give 60 ng or 100 ng of DNA were prepared, and the samples were each fragmented into pieces having a length of approximately 350 bp on average by using a DNA Shearing System ME220. The fragments of each sample were divided into two groups. For the group without nuclease treatment (nontreatment group), the DNA fragments were suspended in Resuspension buffer attached to the TruSeq for End Repair in the subsequent step in accordance with the recommended protocol to afford 60 μL of eluate. For the group with nuclease treatment (treatment group), the DNA fragments were purified through steps of adsorbing on Sample Purification Beads attached to the TruSeq (hereinafter, also expressed as beads, simply), washing twice with 80% ethanol water, and drying in accordance with the recommended protocol. In the subsequent elution operation, the beads were suspended in distilled water (DW, produced by NIPPON GENE CO., LTD.) to afford 30 μL of DNA eluate containing DNA fragments.\nTo the DNA eluate obtained in I), 4 μL of 10× Reaction Buffer attached to the S1 nuclease was added. The S1 nuclease was appropriately diluted with 1× Reaction Buffer, 1, 3, 10, 30, 100, or 300 U thereof was added to the DNA eluate, and DW was added thereto to a total volume of 40 μL. For the sample to which 1000 U of the S1 nuclease was to be added, 4.6 μL of 10× Reaction Buffer was added to 30 μL of the DNA eluate obtained by beads purification, and 12 μL of the stock solution of the S1 nuclease was added thereto to a total volume of 46 μL. Each reaction solution with the S1 nuclease was incubated at 30° C. for 30 minutes. Assuming that the whole amount of DNA (60 ng) present at the beginning of library preparation existed in each reaction solution, the numbers of units of the S1 nuclease per 1 ng of DNA were 0.02, 0.05, 0.17, 0.50, 1.67, 5.00, and 16.7 U/ng. For inactivation of the S1 nuclease in each reaction solution, 3 μL of 0.5 M EDTA (pH 8.0) (produced by NIPPON GENE CO., LTD.) was added, and the resultant was incubated at 70° C. for 10 minutes. […]"}, "genome of TA100 strain [2]": {"test_system": "genome of TA100 strain", "assay": "Mutation frequency in 3-MC-exposed library by sequencing utilizing information on complementary strands", "remark": "listed apart in the source"}}, "note": "“And” between values parts separate entries of the source, which are not always exact repeats. Equal values may be shown once.", "data": [{"compound": "Cc1ccc2cc3c(ccc4ccccc43)c3c2c1CC3", "note": "[3-MC, 3-methylcholanthrene]", "values": [{"measurement": "Number of revertants", "setting": "TA100 strain; 3-MC 10 μg/plate", "result": "887 and 881 and 1279"}, {"measurement": "Number of revertants, Mean", "setting": "TA100 strain; 3-MC 10 μg/plate", "result": 1016}, {"measurement": "Number of revertants", "setting": "TA100 strain; 3-MC 20 μg/plate", "result": "1539 and 1484 and 1509"}, {"measurement": "Number of revertants, Mean", "setting": "TA100 strain; 3-MC 20 μg/plate", "result": 1511}, {"measurement": "Number of revertants", "setting": "TA100 strain; 3-MC 100 μg/plate", "result": "1519 and 1539 and 1797"}, {"measurement": "Number of revertants, Mean", "setting": "TA100 strain; 3-MC 100 μg/plate", "result": 1618}, {"measurement": "SN ratio determined from mean values of GC→TA mutation frequency", "setting": "genome of TA100 strain [1]; 3-MC vs DMSO control, without MBN treatment, each n=3", "result": 1.61}, {"measurement": "mean value of mutation frequency for GC→TA", "setting": "genome of TA100 strain [1]; 3-MC-exposed, without MBN treatment, n=3", "result": "0.176×10^−6"}, {"measurement": "GC → TA mutation frequency increase rate (3MC/DMSO control), SN ratio", "setting": "genome of TA100 strain [1]; MBN experiment, MBN 0 U/ng (nontreatment)", "result": 2.04}, {"measurement": "GC → TA mutation frequency increase rate (3MC/DMSO control), SN ratio", "setting": "genome of TA100 strain [1]; RecJf experiment, RecJf 0 U/ng (nontreatment)", "result": 2.04}, {"measurement": "GC → TA mutation frequency increase rate (3MC/DMSO control), SN ratio", "setting": "genome of TA100 strain [1]; library S1 nuclease 0 U/ng (nontreatment)", "result": 1.27}, {"measurement": "GC → TA mutation frequency increase rate (3MC/DMSO control), SN ratio", "setting": "genome of TA100 strain [1]; library treated with MBN 0.03 U/ng", "result": 1.60}, {"measurement": "GC → TA mutation frequency increase rate (3MC/DMSO control), SN ratio", "setting": "genome of TA100 strain [1]; library treated with MBN 0.10 U/ng", "result": 1.81}, {"measurement": "GC → TA mutation frequency increase rate (3MC/DMSO control), SN ratio", "setting": "genome of TA100 strain [1]; library treated with MBN 0.30 U/ng", "result": 1.34}, {"measurement": "GC → TA mutation frequency increase rate (3MC/DMSO control), SN ratio", "setting": "genome of TA100 strain [1]; library treated with MBN 1.00 U/ng", "result": 1.92}, {"measurement": "GC → TA mutation frequency increase rate (3MC/DMSO control), SN ratio", "setting": "genome of TA100 strain [1]; library treated with RecJf 1.00 U/ng", "result": 1.94}, {"measurement": "GC → TA mutation frequency increase rate (3MC/DMSO control), SN ratio", "setting": "genome of TA100 strain [1]; library treated with S1 nuclease 0.02 U/ng", "result": 2.1}, {"measurement": "GC → TA mutation frequency increase rate (3MC/DMSO control), SN ratio", "setting": "genome of TA100 strain [1]; library treated with S1 nuclease 0.05 U/ng", "result": 1.97}, {"measurement": "GC → TA mutation frequency increase rate (3MC/DMSO control), SN ratio", "setting": "genome of TA100 strain [1]; library treated with S1 nuclease 0.17 U/ng", "result": 2.72}, {"measurement": "GC → TA mutation frequency increase rate (3MC/DMSO control), SN ratio", "setting": "genome of TA100 strain [1]; library treated with S1 nuclease 0.50 U/ng", "result": 3.75}, {"measurement": "GC → TA mutation frequency increase rate (3MC/DMSO control), SN ratio", "setting": "genome of TA100 strain [1]; library treated with S1 nuclease 1.67 U/ng", "result": 3.35}, {"measurement": "GC → TA mutation frequency increase rate (3MC/DMSO control), SN ratio", "setting": "genome of TA100 strain [1]; library treated with S1 nuclease 5.00 U/ng", "result": 1.63}, {"measurement": "GC → TA mutation frequency increase rate (3MC/DMSO control), SN ratio", "setting": "genome of TA100 strain [1]; library treated with S1 nuclease 16.7 U/ng", "result": 3.59}, {"measurement": "GC → TA mutation frequency increase rate (3MC/DMSO control), SN ratio", "setting": "genome of TA100 strain [2]; library treated with RecJf 0.03 U/ng", "result": 1.48}, {"measurement": "GC → TA mutation frequency increase rate (3MC/DMSO control), SN ratio", "setting": "genome of TA100 strain [2]; library treated with RecJf 0.10 U/ng", "result": 2.14}, {"measurement": "GC → TA mutation frequency increase rate (3MC/DMSO control), SN ratio", "setting": "genome of TA100 strain [2]; library treated with RecJf 0.30 U/ng", "result": 1.68}]}]}
